In patent publication US4882349A, “Pyrrolacetic amides having antiinflammatory activity” (priority 1982, dated 1989):

What was measured:
[1] = test system: mucus secreted by the respiratory airway; assay: antisecretory activity, respiratory mucus secretion; assay type: in vivo, albino male New Zealand rabbits; conditions: vs control group
Procedure: The experiment was carried out in accordance with the method described by Y. Kase (Folia Pharmacol. Jap. 73: 605, 1977) for the purpose of investigating whether or not the compounds under examination determine changes in the volume of the mucus secreted by the respiratory airway. Groups of four albino male New Zealand rabbits (mean weight: 2.5 kg) were used for testing each dose per single group. The animals were anesthetized with urethane (1.1 g/ks b.w.) via the intraperitoneal route and a Y cannula was inserted into the trachea. In order to stimulate mucous secretion a humidifier was connected to the cannula permitting the animals to spontaneously breathe air with 100% humidity at a constant temperature of 39° C. The secreted mucus was collected through another opening in the cannula and measured at three and six hours after administration of the compounds under examination or of the vehicle alone administered in the order of […] (controls). Calculation of the increase or decrease in mucous secretion was based upon the percentage differences between the groups treated with the compounds under examination and the control group. Table VII gives the percentage differences in mucous secretion, and the tested compounds with relative doses and routes of administration.

[2] = test system: carrageenin-induced oedema; assay: carrageenin-induced oedema test (anti-inflammatory activity); assay type: in vivo, albino male Wistar rats
Procedure: This effect was evaluated by means of an experimental model reproducing acute inflammation: for this purpose the carrageenin- induced oedema test was employed following the method described by C.
Albino male Wistar rats weighing 140-160 g were caged for 10 days at 22±1° C. and given a balanced diet and water ad libitum. Eighteen hours before the experiment the animals were randomized into groups of ten and fasted but with free access to water. Each dose was tested in three groups of rats. Each compound was given either orally, by gavage, or parenterally--intraperitoneal injection--administering as follows:
controls: 0.5% carboxymethylcellulose suspension in physiological saline, 10 ml/kg
treated: suspension of the compounds to be tested in the same vehicle and at the same volume (10 ml/kg) used for the controls at the doses specified below.
One hour after administration of the compounds and vehicle, in order to provoke the oedema for determining the protective effect of the substances under examination, each rat received, by subcutaneous injection into the plantar surface of the left paw, 0.1 ml of 1% sterile carrageenin suspension.

[3] = test system: cough provoked by mechanical stimulation of the tracheal bifurcation mucosa; assay: antitussive activity, mechanically provoked coughing; assay type: in vivo, albino Guinea-pigs; conditions: 1 h after administration
Procedure: The antitussive effect on albino Guinea-pigs weighing 300 g was evaluated using the method described by Y. Kase (Selected Pharmacological Testing Methods, p.363, Marcel Dekker Inc., New York, 1968). Each dose was tested in a group of animals with a Y cannula inserted into the trachea. In order to provoke coughing, the mucosa of the tracheal bifurcation was mechanically stimulated by insertion of a wild boar's hair through an opening in the cannula, while the other opening was connected to a kymograph to plot the amplitude and/or frequency. The reduction in the number of coughs was evaluated at one hour after administration of the compounds under examination by following the plottings for twenty minutes and comparing the response of the control animals.

[4] = test system: phenyl-p-quinone-induced writhing (abdominal contractions); assay: phenylquinone-induced writhing test (analgesic activity), compound given 30 min before phenyl-p-quinone; assay type: in vivo, male Wistar rats; conditions: 10 mg/Kg per os
Procedure: Male Wistar rats weighing 110±5 g were caged for 10 days at 22±1° C. and given a balanced diet with free access to water. Twenty-four hours before the experiment the animals were randomized into groups of 10 and fasted for 14 hours but with free access to water. Each dose was tested in 3 groups of rats. Thirty minutes following administration either orally or parenterally of the products to be tested and the vehicle alone (0.5% carboxymethyl-cellulose in physiological saline) in the control animals, each rat was given 2 ml of a 5% absolute ethanol aqueous solution containing 0.36% of phenyl-p-quinone (Sigma Chemical Company) in order to provoke writhings. Fifteen minutes after administration of phenyl-p-quinone the number of contractions were counted for 20 minutes. The inhibiting effect of the compounds under examination on the abdominal contractions induced by phenyl-p-quinone was calculated by the following formula: % protection= [formula]
Table V lists the tested compounds, doses, routes of administration and their efficacy expressed as percentage of protection, taking into account that phenyl-p-quinone was administered thirty minutes after the compounds.

Cc1ccc(C(=O)c2ccc(CC(=O)O)n2C)cc1 [Tolmetin Na.2H2 O, 1-methyl-5-p-toluoylpyrrole-2-acetic acid, reference compound]
% difference in mucus secretion ([1]; 50 mg/Kg i.p., 3 h): +3% | % difference in mucus secretion ([1]; 50 mg/Kg i.p., 6 h): +7% | % difference in mucus secretion ([1]; 50 mg/Kg per os, 3 h): +5% | % difference in mucus secretion ([1]; 50 mg/Kg per os, 6 h): +10% | % difference in mucus secretion ([1]; 75 mg/Kg i.p., 3 h): +8% | % difference in mucus secretion ([1]; 75 mg/Kg i.p., 6 h): +10% | % difference in mucus secretion ([1]; 75 mg/Kg per os, 3 h): 0.0% | % difference in mucus secretion ([1]; 75 mg/Kg per os, 6 h): +2% | % difference in mucus secretion ([1]; 100 mg/Kg i.p., 3 h): +7% | % difference in mucus secretion ([1]; 100 mg/Kg i.p., 6 h): 0.0% | % difference in mucus secretion ([1]; 100 mg/Kg per os, 3 h): +5% | % difference in mucus secretion ([1]; 100 mg/Kg per os, 6 h): 0.0% | oedema % inhibition ([2]; 10 mg/Kg per os, 2 h): 44.8% | oedema % inhibition ([2]; 10 mg/Kg per os, 4 h): 29.2% | oedema % inhibition ([2]; 10 mg/Kg per os, 6 h): 10.2% | oedema % inhibition ([2]; 10 mg/Kg per os, 24 h): 0.0% | oedema % inhibition ([2]; 10 mg/Kg per os, 48 h): 0.0% | oedema % inhibition ([2]; 10 mg/Kg per os, 72 h): 0.0% | oedema % inhibition ([2]; 10 mg/Kg, Table IV (route not given), 2 h): 46.0% | oedema % inhibition ([2]; 10 mg/Kg, Table IV (route not given), 4 h): 39.1% | oedema % inhibition ([2]; 10 mg/Kg, Table IV (route not given), 6 h): 20.0% | oedema % inhibition ([2]; 10 mg/Kg, Table IV (route not given), 24 h): 0.0% | oedema % inhibition ([2]; 10 mg/Kg, Table IV (route not given), 48 h): 0.0% | oedema % inhibition ([2]; 10 mg/Kg, Table IV (route not given), 72 h): 0.0% | oedema % inhibition ([2]; 50 mg/Kg per os, 2 h): 48.0% | oedema % inhibition ([2]; 50 mg/Kg per os, 4 h): 55.3% | oedema % inhibition ([2]; 50 mg/Kg per os, 6 h): 55.2% | oedema % inhibition ([2]; 50 mg/Kg per os, 24 h): 0.0% | oedema % inhibition ([2]; 50 mg/Kg per os, 48 h): 0.0% | oedema % inhibition ([2]; 50 mg/Kg per os, 72 h): 0.0% | oedema % inhibition ([2]; 50 mg/Kg, Table IV (route not given), 2 h): 53.8% | oedema % inhibition ([2]; 50 mg/Kg, Table IV (route not given), 4 h): 60.0% | oedema % inhibition ([2]; 50 mg/Kg, Table IV (route not given), 6 h): 58.4% | oedema % inhibition ([2]; 50 mg/Kg, Table IV (route not given), 24 h): 0.0% | oedema % inhibition ([2]; 50 mg/Kg, Table IV (route not given), 48 h): 0.0% | oedema % inhibition ([2]; 50 mg/Kg, Table IV (route not given), 72 h): 0.0% | oedema % inhibition ([2]; 100 mg/Kg per os, 2 h): 50.8% | oedema % inhibition ([2]; 100 mg/Kg per os, 4 h): 57.3% | oedema % inhibition ([2]; 100 mg/Kg per os, 6 h): 54.8% | oedema % inhibition ([2]; 100 mg/Kg per os, 24 h): 9.7% | oedema % inhibition ([2]; 100 mg/Kg per os, 48 h): 7.8% | oedema % inhibition ([2]; 100 mg/Kg per os, 72 h): 0.0% | oedema % inhibition ([2]; 100 mg/Kg, Table IV (route not given), 2 h): 57.0% | oedema % inhibition ([2]; 100 mg/Kg, Table IV (route not given), 4 h): 66.0% | oedema % inhibition ([2]; 100 mg/Kg, Table IV (route not given), 6 h): 67.1% | oedema % inhibition ([2]; 100 mg/Kg, Table IV (route not given), 24 h): 8.7% | oedema % inhibition ([2]; 100 mg/Kg, Table IV (route not given), 48 h): 2.0% | oedema % inhibition ([2]; 100 mg/Kg, Table IV (route not given), 72 h): 0.0% | % inhibition, cough amplitude ([3]; 50 mg/Kg i.p.): 0% | % inhibition, cough frequency ([3]; 50 mg/Kg i.p.): 0% | % inhibition, cough amplitude ([3]; 50 mg/Kg per os): 0% | % inhibition, cough frequency ([3]; 50 mg/Kg per os): 0% | % inhibition, cough amplitude ([3]; 75 mg/Kg i.p.): 0% | % inhibition, cough frequency ([3]; 75 mg/Kg i.p.): 10% | % inhibition, cough amplitude ([3]; 75 mg/Kg per os): 7% | % inhibition, cough frequency ([3]; 75 mg/Kg per os): 0% | % inhibition, cough amplitude ([3]; 100 mg/Kg i.p.): 7% | % inhibition, cough frequency ([3]; 100 mg/Kg i.p.): 10% | % inhibition, cough amplitude ([3]; 100 mg/Kg per os): 5% | % inhibition, cough frequency ([3]; 100 mg/Kg per os): 5% | % Protection [4]: 40.0%
